Measured values taken from US20230301991A1, “COMPOUNDS FOR THE TREATMENT OF VIRAL INFECTIONS” (priority 2020, published 2023).

Assays:
SARS-CoV-1 = assay type: cell-based
MERS = assay type: cell-based
SARS-CoV-2 = assay type: cell-based

CNCc1ccc(-c2cc(-c3nc(-c4ccc(S(=O)(=O)C(C)C)cc4)cnc3N)on2)cc1 [Compound 1, 3-[3-(4-Methylaminomethyl-phenyl)-isoxazol-5-yl]-5-[4-(propane-2-sulfonyl)-phenyl]-pyrazin-2-ylamine]
cell viability (Calu-3): remains nearly unaffected | inhibition of virus replication (SARS-CoV-1): dose dependent inhibition | inhibition of virus replication (MERS): dose dependent inhibition | inhibition in cells infected by SARS-CoV-2 compared with remdesivir (SARS-CoV-2): comparable with that of the antiviral reference substance remdesivir | inhibition of virus replication (SARS-CoV-2): dose dependent inhibition
